# Measured values: patent publication US8557812B2, “Small molecule inhibitors of anti-apoptotic BCL-2 family members and the uses thereof” (The Regents of the University of Michigan, priority 2004, dated 2013)
# Key:
# MDA-231 cells = assay: Cell survival with CDDP and TW-37 alone or in combination; assay type: cell-based, human; conditions: CDDP alone, 42 hours
# Excerpt: CDDP is a DNA damaging agent and can effectively induce apoptosis in MDA-231 breasted cancer cells and is also a clinically used chemotherapeutic drug for cancer.
# MDA-MB-231 (2LMP) cells = assay: Cell growth of MDA-MB-231 (2LMP) cells (WST); assay type: cell-based; conditions: Homo sapiens, read-out: IC50 of cell growth inhibition
# Bcl-2 = Bcl-2 (Homo sapiens, UniProt P10415); assay: Fluorescence polarization in vitro Bcl-2 binding assay
# Sequence of Bcl-2 (P10415 92-205 limits assumed): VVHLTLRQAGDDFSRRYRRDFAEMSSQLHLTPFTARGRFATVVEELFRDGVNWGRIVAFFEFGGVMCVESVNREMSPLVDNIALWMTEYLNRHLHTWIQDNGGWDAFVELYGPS
# Method: Bcl-2 used in this assay is a recombinant His-fused soluble protein. […] Inc., Research Triangle Park, N.C.). […] The unlabeled Bid peptide is used as the positive control. The Ki values were calculated using our developed equation for FP assay (Nikolovska-Coleska et al., Anal. Biochem., 2004, in press). The program for calculating a Ki value is available free of charge via the Internet at http://sw16.im.med.umich.edu/software/calc_ki/.
# human Bcl-xL = human Bcl-xL (Homo sapiens, UniProt Q07817); assay: Fluorescence polarization in vitro Bcl-xL binding assay; conditions: displacement of Flu-Bak peptide
# Sequence of human Bcl-xL (Q07817 1-209 limits assumed): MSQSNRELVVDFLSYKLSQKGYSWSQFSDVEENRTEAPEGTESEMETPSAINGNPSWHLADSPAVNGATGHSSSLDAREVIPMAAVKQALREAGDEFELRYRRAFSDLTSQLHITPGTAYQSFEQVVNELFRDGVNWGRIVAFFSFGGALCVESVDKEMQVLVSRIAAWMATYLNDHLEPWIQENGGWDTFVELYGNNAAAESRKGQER
# Excerpt: For determination of the binding affinity to Bcl-xL protein a human Bcl-xL recombinant His-tagged protein without the C-terminus hydrophobic tail and the Bak-16mer BH3 peptide labeled with 6-carboxyfluorescein succinimidyl ester (FAM) were used.
Structure (SMILES),IC50 (MDA-231 cells),IC50 (MDA-MB-231 (2LMP) cells),IC50 (Bcl-2),IC50 (human Bcl-xL)
"N.N.[Cl][Pt][Cl] [cisplatin, Cisplatin, reference compound]",~0.75 µM,,,
CCCCCCCCCCC(=O)c1cc(C(CCCCCCCCCC)c2ccccc2)c(O)c(O)c1O (stereo not shown) [TM-124],,> 20 µM,,
O=C(c1ccc(Oc2ccccc2)cc1)c1cc(C(=O)c2ccc(Oc3ccccc3)cc2)c(O)c(O)c1O [TM-170],,0.1 to 20 µM,,
CCCCCCCCCCCc1cc(Cc2ccccc2)c(O)c(O)c1O [TM-121],,0.1 to 20 µM,≤ 1 µM,> 1 µM
CC(C)Cc1ccc(Cc2cc(CCCc3ccccc3)c(O)c(O)c2O)cc1 [TM-132],,0.1 to 20 µM,,
CCCCCCCCCCCCCCCc1cc(C(C)C)c(O)c(O)c1O [TM-109],,0.1 to 20 µM,,
CC(C)c1cc(C(=O)Cc2ccc3ccccc3c2)c(O)c(O)c1O [TM-108],,0.1 to 20 µM,> 1 µM,> 1 µM
Cc1cc(Cc2cc(Cc3ccccc3)c(O)c(O)c2O)c(C(C)C)cc1Oc1ccc([N+](=O)[O-])cc1C(F)(F)F [TM-146],,0.1 to 20 µM,,
Oc1c(Cc2ccccc2)cc(Cc2ccc(Oc3ccccc3)cc2)c(O)c1O [TM-141],,0.1 to 20 µM,,> 1 µM
CC(C)c1ccc(C(=O)c2cc(CCCc3ccccc3)c(O)c(O)c2O)cc1 [TM-126],,0.1 to 20 µM,,
CCCCCCc1cc(C(C)C)c(O)c(O)c1O [TM-103],,0.1 to 20 µM,,
CCCCCCCCCCCc1cc(C(C)C)c(O)c(O)c1O [TM-105],,0.1 to 20 µM,> 1 µM,> 1 µM
CC(C)c1cc(Cc2cc(Cc3ccccc3)c(O)c(O)c2O)ccc1Oc1ccc2ccccc2n1 [TM-153],,0.1 to 20 µM,,
Cc1cc(Cc2cc(Cc3ccccc3)c(O)c(O)c2O)c(C(C)C)cc1Oc1ccnc2ccccc12 [TM-147],,0.1 to 20 µM,,
CCCCCC(=O)c1cc(C(C)C)c(O)c(O)c1O [TM-104],,0.1 to 20 µM,,
O=C(c1ccc(Oc2ccccc2)cc1)c1cc(C(=O)c2cccc3ccccc23)c(O)c(O)c1O [TM-168],,0.1 to 20 µM,,
O=C(c1ccc(Oc2ccccc2)cc1)c1cc(-c2ccc3ccccc3c2)c(O)c(O)c1O [TM-167],,0.1 to 20 µM,,> 1 µM
CC(C)c1cc(CCc2ccc3ccccc3c2)c(O)c(O)c1O [TM-107],,0.1 to 20 µM,> 1 µM,> 1 µM
